Assay results reported in patent US7365231B2, “Compound with antitumor activity and preparation method therefor” (National Taiwan University of Science & Technology, priority 2005, dated 2008).
Blank lines part the entries; values can stand above or below the compound they belong to.

Assays:
colon (Colo 205) cancer = conditions: Colo 205 in SCID mice; cited from earlier work
[1] = xenograft study; cited from earlier work
human colon cancer cells = conditions: cited from earlier work
[2] = test system: human colon cancer cells xenografts; conditions: cited from earlier work
colon cancer cell lines = conditions: NCI Anticancer Drug Screen; cited from earlier work
[3] = test system: human gastric (SC-M1) cancer; conditions: SC-M1 in SCID mice; cited from earlier work

Compound: dimethyladamantylmaleimide [DMAMI]
apoptosis and tumor growth (colon (Colo 205) cancer): induce apoptosis and inhibit the growth

melting point: > 180 °C (dec.)
Compound: Nc1ccc(Oc2ccccc2Oc2ccc(N)c(O)c2)cc1O [Example 10, 1,2-Bis(4-amino-3-hydroxyphenoxy)benzene]

Compound: 1,6-bis(4-(4-amino-3-hydroxyphenoxy)phenyl)diamantane [DPD]
acute toxicity [1]: no obvious acute toxicity | cell cycle arrest and differentiation (human colon cancer cells): induced G0/G1 arrest and differentiation | in vivo anticancer activity [2]: has in vivo anticancer activity | anticancer activity on colon cancer cell lines (colon cancer cell lines): marked anticancer activities

Compound: O=C1C=CC(=O)N1C12CC3CC(CC(C3)C1)C2 [AMI, N-1-adamantylmaleimide]
apoptosis and tumor growth [3]: induce apoptosis and inhibit the growth

melting point: > 220 °C (dec.)
Compound: Nc1ccc(Oc2ccc(Oc3ccc(N)c(O)c3)cc2)cc1O [Example 8, 1,4-Bis(4-amino-3-hydroxyphenoxy)benzene]
